Earlier results as cited in patent US20150307774A1, “Chelates, chelating agents, conjugates derived thereof and their use” (priority 2012, published 2015).

Conditions: at this pH (7.4), calculated from literature data

Q: With `O=C(O)CN(CCN(CC(=O)O)CC(=O)O)CC(=O)O` [EDTA] as the compound, how does the conditional stability constant read?
A: Its conditional stability constant is 14.53 Log units.
